Data taken from PubChem BioAssay (NCI).
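These data come from cells grown in 96-well plates and exposed to compound for 48 hours at five concentrations. Here, GI50 denotes the concentration required for 50% inhibition of growth. TGI is the concentration that stops growth completely.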

Key:
Experiment in all cases: NCI-60 cell line screen, 48 h
COLO 205 colon = system: COLO 205 colon
BT-549 breast = system: BT-549 breast
OVCAR-3 ovarian = system: OVCAR-3 ovarian
HL-60(TB) leukemia = system: HL-60(TB) leukemia
KM12 colon = system: KM12 colon
NCI/ADR-RES ovarian = system: NCI/ADR-RES ovarian
MDA-MB-435 = system: MDA-MB-435
SNB-19 CNS = system: SNB-19 CNS
SF-539 CNS = system: SF-539 CNS
A498 renal = system: A498 renal

| SMILES | GI50 (COLO 205 colon) | TGI (COLO 205 colon) | GI50 (BT-549 breast) | TGI (BT-549 breast) | GI50 (OVCAR-3 ovarian) | TGI (OVCAR-3 ovarian) | GI50 (HL-60(TB) leukemia) | TGI (HL-60(TB) leukemia) | GI50 (KM12 colon) | TGI (KM12 colon) | GI50 (NCI/ADR-RES ovarian) | TGI (NCI/ADR-RES ovarian) | GI50 (MDA-MB-435) | TGI (MDA-MB-435) | GI50 (SNB-19 CNS) | TGI (SNB-19 CNS) | GI50 (SF-539 CNS) | TGI (SF-539 CNS) | GI50 (A498 renal) | TGI (A498 renal) |
| --- | --- | --- | --- | --- | --- | --- | --- | --- | --- | --- | --- | --- | --- | --- | --- | --- | --- | --- | --- | --- |
| Clc1ccc(Nc2nc(Nc3ccccc3)nc(Nc3ccc(-c4cc(-c5ccc(Cl)cc5)on4)cc3)n2)cc1 | 11.9 µM | 32.5 µM | 32.9 µM | > 100 µM | 27.4 µM | > 100 µM | 51.5 µM | > 100 µM | 13.5 µM | 52.4 µM | 21.1 µM | > 100 µM | 17.8 µM | 69.7 µM | 45.6 µM | > 100 µM | 37.9 µM | > 100 µM | 3.38 µM | 55.1 µM |
| Nc1nnc(CCC(=O)Nc2cc(Cl)ccc2Cl)n1N | – | > 100 µM | – | – | – | > 100 µM | – | > 100 µM | – | > 100 µM | – | – | – | – | – | > 100 µM | – | > 100 µM | – | > 100 µM |
| O=C1C2Cc3c(n(C(=O)c4ccccc4)c4ccccc34)CC2C(=O)N1c1ccc(Nc2ccc(N3C(=O)C4Cc5c(n(C(=O)c6ccccc6)c6ccccc56)CC4C3=O)cc2)cc1 (stereo not drawn) | – | > 100 µM | – | > 100 µM | – | > 100 µM | – | 46.1 µM | – | > 100 µM | – | > 100 µM | – | > 100 µM | – | > 100 µM | – | – | – | > 100 µM |
| CC1=CC(O)C(C(O)(C(F)(F)F)C(F)(F)F)C(C)(C)C1 (stereo not drawn) | – | > 10 µM | – | > 10 µM | – | > 10 µM | – | > 10 µM | – | > 10 µM | – | > 10 µM | – | – | – | > 10 µM | – | > 10 µM | – | 0.0823 µM |
| OCCCSCCO | – | > 100 µM | – | > 100 µM | – | > 100 µM | – | > 100 µM | – | > 100 µM | – | > 100 µM | – | > 100 µM | – | > 100 µM | – | > 100 µM | – | > 100 µM |
| O=C(O)C(O)C(O)C(O)C(O)C(=O)O (stereo not drawn) | – | > 100 µM | – | – | – | > 100 µM | – | > 100 µM | – | > 100 µM | – | > 100 µM | – | > 100 µM | – | > 100 µM | – | > 100 µM | – | > 100 µM |
| CC1C(=O)c2cc3c(cc2CCN(C)Cc2c1ccc1c2OCO1)OCO3 (stereo not drawn) | 26.2 µg/mL | > 75 µg/mL | 59 µg/mL | > 75 µg/mL | > 75 µg/mL | > 75 µg/mL | 21.2 µg/mL | > 75 µg/mL | 59 µg/mL | > 75 µg/mL | 58.3 µg/mL | > 75 µg/mL | 47.7 µg/mL | > 75 µg/mL | > 75 µg/mL | > 75 µg/mL | 71.2 µg/mL | > 75 µg/mL | > 75 µg/mL | > 75 µg/mL |
| Cc1cc2ccc(OC(=O)c3ccc(N=C(N)N)cc3)cc2oc1=O | – | 55.9 µM | – | 64.6 µM | – | 45.9 µM | – | 45.8 µM | – | 61.1 µM | – | > 100 µM | – | 58.1 µM | – | 54.8 µM | – | 61.6 µM | – | 43.9 µM |
| O=C1/C(=C/c2[nH]ncc2-c2ccc(Cl)cc2)C(=O)N(c2ccccc2)C1c1ccccc1 (stereo not drawn) | – | 32.8 µM | – | 43.7 µM | – | 26.9 µM | – | 37 µM | – | 79.5 µM | – | > 100 µM | – | 35.5 µM | – | > 100 µM | – | 58.8 µM | – | 69.6 µM |
| O/C(=C\c1nc2ccccc2nc1/C=C(\O)c1ccc(F)cc1)c1ccc(F)cc1 | – | > 100 µM | – | > 100 µM | – | > 100 µM | – | > 100 µM | – | > 100 µM | – | > 100 µM | – | > 100 µM | – | > 100 µM | – | > 100 µM | – | > 100 µM |
| Nc1cc(S(=O)(=O)O)cc2ccc(S(=O)(=O)O)cc12 | – | > 100 µM | – | > 100 µM | – | > 100 µM | – | > 100 µM | – | > 100 µM | – | > 100 µM | – | > 100 µM | – | > 100 µM | – | > 100 µM | – | > 100 µM |
| Cc1n[n+]([O-])c(C)cc1[N+](=O)[O-] | – | 26.3 µM | – | 51.5 µM | – | 27.6 µM | – | – | – | – | – | 42.1 µM | – | 29 µM | – | > 100 µM | – | 59.3 µM | – | 40.6 µM |
| CC1(C(=O)O)C[C@](C)(C(=O)OCc2ccccc2)C[C@](C)(C(=O)OCc2ccccc2)C1 (stereo partly drawn) | – | 33.8 µM | – | 65.6 µM | – | 73.7 µM | – | 53.9 µM | – | 99.5 µM | – | > 100 µM | – | > 100 µM | – | > 100 µM | – | 64.5 µM | – | – |
| O=C(Cc1csc2nc(-c3ccc(Cl)cc3)cn12)N/N=C/c1ccccc1O | 2.93 µM | > 100 µM | – | – | 0.36 µM | 83.8 µM | 1.66 µM | 8.51 µM | 2.81 µM | > 100 µM | 2.6 µM | 81.8 µM | 6.1 µM | > 100 µM | 12.3 µM | > 100 µM | 7.93 µM | > 100 µM | 8.32 µM | > 100 µM |
| O=S(=O)(O)c1ccc2c(N=Nc3ccc(N=Nc4ccccc4)cc3)c(O)c(S(=O)(=O)O)cc2c1 | – | > 100 µM | – | > 100 µM | – | > 100 µM | – | > 100 µM | – | > 100 µM | – | > 100 µM | – | > 100 µM | – | > 100 µM | – | > 100 µM | – | – |
| N=c1ccc2nc(N)nn(O)c-2c1 | – | > 100 µM | – | > 100 µM | – | > 100 µM | – | > 100 µM | – | > 100 µM | – | > 100 µM | – | > 100 µM | – | > 100 µM | – | > 100 µM | – | > 100 µM |
